# Measured values reported in patent US9168247B2, “Beta carboline derivatives useful in the treatment of proliferative disorders” (FACULTES UNIVERSITAIRES NOTRE DAME DE LA PAIX, priority 2010, dated 2015).
# Tests used:
# [1] = test system: OE33 oesophageal cancer cells; assay: MTT test, overall cell growth, OE33; type: cell-based, human; conditions: 72 hours of incubation
# Procedure: (§1) MTT tests were performed in order to rapidly, i.e., within 5 days, measure the effect of the present compounds on the overall cell growth. The test measured the number of metabolically active living cells that were able to transform the yellow product 3-(4,5-dimethylthiazol-2-yl)-2,5-diphenyl tetrazolium bromide (herein referred as MTT) into the blue product formazan dye by mitochondrial reduction. The amount of formazan obtained at the end of the experiment, measured by means of a spectrophotometer, is directly proportional to the number of living cells. Optical density determination thus enabled a quantitative measurement of the effect of the investigated compounds as compared to the control condition (untreated cells) and/or to other reference compounds.
# (§2) Five human cancer cell lines set forth in Table 3 were used in the MTT tests. These cancer cell lines cover two histological cancer types including glioma (Hs683, T98G, U373), and oesophageal (OE21, OE33) cancers. The U373 cell line is apoptosis-resistant but autophagy-sensitive.
# (§3) To perform the assay, cells were allowed to grow in 96-well micro-wells with a flat bottom with an amount of 100 μl of cell suspension per well with 5,000 to 8,000 cells/well depending on the cell type used. Each cell line was seeded in its appropriate culture medium.
# (§4) The detailed experimental procedure was as follows: after a 24-hour period of incubation at 37° C., the culture medium was replaced by 100 μl of fresh medium in which the tested compound was previously dissolved, at the following molar concentrations: 1×10^−8 M, 5×10^−8 M, 1×10^−7 M, 5×10^−7 M, 1×10^−6 M, 5×10^−6 M, 1×10^−5 M, 5×10^−5 M and 1×10^−4 M. Each experiment was performed in sestuplicate (6 times).
# (§5) After 72 hours of incubation at 37° C. with (experimental conditions) or without (control condition) the compound to be tested, the medium was replaced by 100 μl MTT dissolved in RPMI (1640 without phenol red) at a concentration of 0.5 or 1 mg/ml. The micro-wells were subsequently incubated during 3 hours and a half at 37° C. and centrifuged at 1300 rpm during 10 minutes. MTT was removed and formazan crystals formed were dissolved in […]. The micro-wells were shaken for 5 minutes and read on a spectrophotometer at wavelengths of 570 nm (maximal formazan absorbance).
# (§6) For each experimental condition, the mean optical density was calculated, allowing the determination of the percentage of remaining living cells in comparison to the control.
# (§7) The origin of all the cell lines we used, along with their biological characteristics, and the validation procedures of the MTT colorimetric assay as employed here are fully detailed in Van Quaquebeke et al., 2005, J Med Chem 48:849-856; Ingrassia et al., 2009, J Med Chem 52:1100-1114; Mathieu et al., 2009, J Cell Mol Med, Feb. 20, 2009.
# [2] = test system: OE21 oesophageal cancer cells; assay: MTT test, overall cell growth, OE21; type: cell-based, human; conditions: 72 hours of incubation
# Procedure: as §1, §2, §3, §4, §5, §6, §7
# U373 glioma cells = assay: MTT test, overall cell growth, U373; type: cell-based, human; conditions: 72 hours of incubation
# Procedure: as §1, §2, §3, §4, §5, §6, §7
# Hs683 glioma cells = assay: MTT test, overall cell growth, Hs683; type: cell-based, human; conditions: 72 hours of incubation
# Procedure: as §1, §2, §3, §4, §5, §6, §7
# [3] = test system: human cancer cell lines (U373, T98G, Hs683, OE21, OE33); assay: MTT test, mean over the cancer cell lines; type: cell-based; conditions: mean over the cancer cell lines, MTT test; read-out: IC50 Mean ± SEM
# Procedure: as §1, §2, §3, §4, §5, §6, §7
# U373 cells = assay: Cellular imaging (videomicroscopy) of cultured U373 cells: antiproliferative class and global growth ratio; type: cell-based, human; set-up: key to Anti proliferative class / anti-proliferative class-GGR: class I: actually cytostatic for 3 days (<10% of cell death at the 3rd day); class II: cyctostatic but becomes cytotoxic with <10% cell death on the 2nd day, and >20% of cell death on the 3rd day; class III: cytostatic but rapidly becomes cytotoxic with <10% cell death on the 1st day, >20% of cell death on the 2nd day and >50% of cell death on the 3rd day; class IV: cytotoxic (>50% of cell death on the first day); conditions: for global growth ratio (GGR): GG treated cells/GG control cells, 72 h after drug addition, drug at its IC50 (MTT-test determined); for Anti proliferative class: cellular imaging of cultured U373 cells over three consecutive days
# Description: The effects of the di- and tri-substituted beta-carboline derivatives as described herein can also be determined on cell proliferation, migration and morphology by means of a cellular imaging approach (Debeir et al., Cytometry 60:29-40, 2004; Debeir et al., IEEE Trans Med Imaging 24:697-711, 2005) either in, e.g., the human U373-MG glioma cell line, which is apoptosis-resistant but autophagy-sensitive (Lefranc F et al., Neurosurgery 2008) or in, e.g., the human A549 non-small-cell-lung cancer cell line, which is apoptosis-resistant and autophagy-resistant (Mijatovic T et al., Neoplasia 2006, May; 8(5):402-12).
# […] The experiments are conducted in quadruplicates.
# The behaviour of the cells, in terms of morphology, growth and death are thus investigated. The effect on the overall growth is measured by counting the number of cells on the first (0 h) and the last image (72 h) of each film. The global growth ratio (GGR) is then deduced by dividing the number of cells on the last image by the number of cells on the first image. The ratio GGRtreated cells/GGRcontrol cells is further calculated thereby providing a value that describes the effect of compounds of the present invention on the overall cell growth.
# The methodology is fully described and validated in Debeir et al., 2008, Exp Cell Res 314:2985-2998 and Mathieu et al., 2009, J Cell Mol Med, Feb. 20, 2009.
# T98G glioma cells = assay: MTT test, overall cell growth, T98G; type: cell-based, human; conditions: 72 hours of incubation
# Procedure: as §1, §2, §3, §4, §5, §6, §7
SMILES,IC50 [1],IC50 [2],IC50 (U373 glioma cells),IC50 (Hs683 glioma cells),IC50 [3],IC50 (T98G glioma cells),melting point,global growth ratio (GGR) (U373 cells),Anti proliferative class (U373 cells)
Cc1c2[nH]c3cc(OCc4ccccc4)ccc3c2cc[n+]1Cc1ccccc1 [JR88],5.5 ± 0.3 µM,6 ± 0.6 µM,3.9 ± 0.2 µM,3.6 ± 0.1 µM,5 ± 1 µM,5.6 ± 0.2 µM,,0.2,II
Cc1nccc2c1[nH]c1cc(OCCCC(F)(F)F)ccc12 [JR110],> 100 µM,> 100 µM,> 100 µM,> 100 µM,> 97 µM,86 ± 11 µM,,0.2,IV (class IV: cytotoxic (>50% of cell death on the first day))
Cc1nccc2c1[nH]c1cc(OCc3cccc4ccccc34)ccc12 [JR147],8.2 ± 0.4 µM,33 ± 8 µM,7.4 ± 0.4 µM,19 ± 2 µM,16 ± 5 µM,12 ± 2 µM,,0.2,IV (class IV: cytotoxic (>50% of cell death on the first day))
Cc1nccc2c1[nH]c1cc(OCC3CCCCC3)ccc12 [JR167],8.1 ± 0.2 µM,8.3 ± 0.2 µM,7.48 ± 0.07 µM,22 ± 2 µM,11 ± 3 µM,7.2 ± 0.2 µM,,0.1,IV (class IV: cytotoxic (>50% of cell death on the first day))
C=CCOc1ccc2c(c1)[nH]c1c(C)nccc12 [JR211],29.8 ± 0.7 µM,27 ± 2 µM,32 ± 2 µM,28 ± 1 µM,30 ± 1 µM,32 ± 0.7 µM,,0.2,II
Cc1nccc2c1[nH]c1cc(OCC(C)C)ccc12 [JR221],25 ± 1 µM,12 ± 3 µM,24 ± 1 µM,23 ± 1 µM,22 ± 3 µM,22 ± 3 µM,,0.1,IV (class IV: cytotoxic (>50% of cell death on the first day))
"Cc1nccc2c3ccc(OCCC(C)C)cc3n(CCC(C)C)c12 [PL3, 1-methyl-7-(3-methylbutyloxy)-9-(3-methylbutyl)-β-carboline]",,,,,,,106.4 °C,,

# Continued, in another order:
IC50 [1],IC50 [2],IC50 (U373 glioma cells),IC50 (Hs683 glioma cells),IC50 [3],IC50 (T98G glioma cells),melting point,SMILES,global growth ratio (GGR) (U373 cells),Anti proliferative class (U373 cells)
31 ± 4 µM,30 ± 4 µM,27 ± 2 µM,53 ± 3 µM,37 ± 5 µM,42 ± 3 µM,,Cc1nccc2c1[nH]c1cc(OC(=O)c3ccccc3)ccc12 [JR140],0.2,III
7.9 ± 0.3 µM,14 ± 1 µM,9.1 ± 0.6 µM,21 ± 3 µM,15 ± 3 µM,21 ± 1 µM,,Cc1nccc2c1[nH]c1cc(OCCc3ccccc3)ccc12 [JR155],0.2,IV (class IV: cytotoxic (>50% of cell death on the first day))
23 ± 3 µM,16 ± 3 µM,21.3 ± 0.8 µM,20 ± 1 µM,20 ± 1 µM,20 ± 2 µM,,Cc1nccc2c1[nH]c1cc(OCc3ccccn3)ccc12 [JR169],0.4,I (class I: actually cytostatic for 3 days (<10% of cell death at the 3rd day))
6.3 ± 0.1 µM,5 ± 0.4 µM,2.5 ± 0.2 µM,8.1 ± 0.2 µM,5 ± 1 µM,3.6 ± 0.2 µM,,Cc1nccc2c1[nH]c1cc(OCc3ccncc3)ccc12 [JR222],0.4,II
63 ± 4 µM,30 ± 4 µM,42 ± 2 µM,41 ± 3 µM,46 ± 6 µM,53 ± 3 µM,,Cc1nccc2c1[nH]c1cc(OCCO)ccc12 [JR226],0.3,I (class I: actually cytostatic for 3 days (<10% of cell death at the 3rd day))
